In brackets after ≈: the same amount, converted by molar mass.
What follows are compounds tested on SAUR 9218 (assay: MIC Test Method, standard agar dilution). Conditions: agar dilution, Mueller Hinton agar, incubated overnight at 35° C.; lowest concentration that inhibits visible growth; read-out: SAUR 9218 MIC.
Type: cell-based
Procedure: The in vitro MiCs of test compounds were determined by a standard agar dilution method. A stock drug solution of each analog was prepared in the preferred solvent, usually DMSO:H2O (1:3). Serial 2-fold dilutions of each sample are made using 1.0 ml aliquots of sterile distil]ed water. To each 1.0 ml aliquot of drug was added 9 ml of molten Mueller Hinton agar medium. The drug-supplemented agar was mixed, poured into 15×100 mm petri dishes, and allowed to solidify and dry prior to inoculation.
Vials of each of the test organisms are maintained frozen in the vapor phase of a liquid nitrogen freezer. Test cultures are grown overnight at 35° C. on the medium appropriate for the organism. Colonies are harvested with a sterile swab, and cell suspensions are prepared in Trypticase Soy broth (TSB) to equal the turbidity of a 0.5 McFamland standard. A 1:20 dilution of each suspension was made in TSB. The plates containing the drug supplemented agar are inoculated with a 0.001 ml drop of the cell suspension using a Steers replicator, yielding approximately 10^4 to 10^5 cells per spot. The plates are incubated overnight at 35° C.
Following incubation the Minimum Inhibitory Concentration (MIC μg/ml), the lowest concentration of drug that inhibits visible growth of the organism, was read and recorded.

MIC [µg/mL] | SMILES
0.125 (≈ 0.237 µM) | Cc1nn(C)c(Cl)c1S(=O)(=O)Nc1cccc2cc(C(=O)Nc3ccc(C#N)cc3C(=O)O)n(C)c12
2 (≈ 5.31 µM) | N#Cc1ccc(NC(=O)c2cc(CNCc3ccccc3)on2)c(C(=O)O)c1
64 (≈ 120 µM) | CCN(CC)C(=O)C1CCCN(S(=O)(=O)c2cc(C(=O)Nc3ccc(C#N)cc3C(=O)O)sc2C)C1 (stereo not shown)
32 (≈ 50.6 µM) | Cc1sc(C(=O)Nc2ccc(Br)cc2C(=O)O)cc1S(=O)(=O)N1CCN(c2cccc(C(F)(F)F)c2)CC1
> 128 | CCCCN(CCCC)CCCNS(=O)(=O)c1cc(C(=O)Nc2ccc(Br)cc2C(=O)O)sc1C
2 (≈ 5.13 µM) | Cn1cccc1-c1cnc(C(=O)Nc2ccc(Br)cc2C(=O)O)o1
0.125 (≈ 0.27 µM) | N#Cc1ccc(NC(=O)c2noc3ccc(NS(=O)(=O)c4ccccc4)cc23)c(C(=O)O)c1
4 (≈ 8.27 µM) | Cc1sc(C(=O)Nc2ccc(C#N)cc2C(=O)O)cc1S(=O)(=O)N(C)CCc1ccccc1
32 (≈ 82 µM) | O=C(Nc1ccc(Br)cc1C(=O)O)c1cc(Cl)nc(Cl)c1
0.125 (≈ 0.256 µM) | N#Cc1ccc(NC(=O)c2cc3cccc(NC(=O)Cc4cccc5ccccc45)c3[nH]2)c(C(=O)O)c1
1 (≈ 2.58 µM) | O=C(Nc1ccc(Br)cc1C(=O)O)c1ncc(-c2ccccc2)o1
1 (≈ 2.3 µM) | CC(=O)OCC(=O)Nc1ccc2cc(C(=O)Nc3ccc(C#N)cc3C(=O)O)n(C)c2c1
0.125 (≈ 0.294 µM) | Cn1c(C(=O)Nc2ccc(C#N)cc2C(=O)O)cc2cccc(OCc3ccccc3)c21
> 128 | O=C(Nc1ccc(Br)cc1C(=O)O)c1ccc[nH]1
0.5 (≈ 1.33 µM) | COC1CCn2c(C(=O)Nc3ccc(C#N)cc3C(=O)O)cc3cccc1c32 (stereo not shown)
2 (≈ 5.3 µM) | O=C(Nc1ccc(Br)cc1C(=O)O)c1ncc(-c2ccco2)o1
64 (≈ 113 µM) | CCN(CC)c1ccc(NS(=O)(=O)c2csc(C(=O)Nc3ccc(Br)cc3C(=O)O)c2C)cc1
2 (≈ 4.69 µM) | CCCCCCCCCSc1cnc(C(=O)Nc2ccc(C#N)cc2C(=O)O)cn1
4 (≈ 9.7 µM) | N#Cc1cccc(-c2cnc(C(=O)Nc3ccc(Br)cc3C(=O)O)o2)c1
0.5 (≈ 1.14 µM) | CC(=O)Nc1ccccc1-c1ccc2c(C(=O)Nc3ccc(C#N)cc3C(=O)O)noc2c1
1 (≈ 2.04 µM) | O=C(Nc1ccc(I)cc1C(=O)O)c1cnc(SCc2ccccc2)cn1
0.25 (≈ 0.539 µM) | N#Cc1ccc(NC(=O)c2cc3cccc(NC(=O)c4cc5ccccc5[nH]4)c3[nH]2)c(C(=O)O)c1
0.25 (≈ 0.548 µM) | N#Cc1ccc(NC(=O)c2cc3cccc(NC(=O)Cc4ccc(F)cc4)c3[nH]2)c(C(=O)O)c1

MIC [µg/mL] | SMILES
> 128 | CSc1ncccc1C(=O)Nc1ccc(Br)cc1C(=O)O
2 (≈ 4.51 µM) | O=C(Nc1ccc(Br)cc1C(=O)O)c1ccnc(SCc2ccccc2)c1
> 128 | Cc1sc(C(=O)Nc2ccc(C#N)cc2C(=O)O)cc1S(=O)(=O)N1CCN(Cc2ccccc2)CC1
0.5 (≈ 1.31 µM) | N#Cc1ccc(NC(=O)c2ccc(SC3CCCCC3)nc2)c(C(=O)O)c1
8 (≈ 14 µM) | N#Cc1ccc(NC(=O)c2cc(-c3ccccc3NS(=O)(=O)c3ccc(OC(F)(F)F)cc3)on2)c(C(=O)O)c1
0.125 (≈ 0.266 µM) | Cn1c(C(=O)Nc2ccc(C#N)cc2C(=O)O)cc2cccc(OCCCOc3ccccc3)c21
0.25 (≈ 0.571 µM) | N#Cc1ccc(NC(=O)c2cc3cccc4c3n2CCC4Oc2ccccc2)c(C(=O)O)c1 (stereo not shown)
32 (≈ 76.1 µM) | O=C(Nc1ccc(Br)cc1C(=O)O)c1ccc(-c2ccc(Cl)cc2)o1
64 (≈ 119 µM) | CN(C)c1ccc(CNS(=O)(=O)c2cc(C(=O)Nc3ccc(Br)cc3C(=O)O)cs2)cc1
0.5 | CCCCNCC(O)COc1cccc2cc(C(=O)Nc3ccc(C#N)cc3C(=O)O)n(C)c12.Cl (stereo not shown)
2 (≈ 5.95 µM) | COc1ccc2oc(C(=O)Nc3ccc(C#N)cc3C(=O)O)cc2c1
16 (≈ 37.2 µM) | Cn1nc(C(=O)Nc2ccc(Br)cc2C(=O)O)cc1OCc1ccccc1
0.5 (≈ 0.989 µM) | Cc1noc(-c2ccccc2)c1C(=O)Nc1cccc2cc(C(=O)Nc3ccc(C#N)cc3C(=O)O)[nH]c12
16 (≈ 30.3 µM) | Cc1sc(C(=O)Nc2ccc(C#N)cc2C(=O)O)cc1S(=O)(=O)N1CCN(c2ccc(F)cc2)CC1
> 128 | CC1(C)OCC(CCc2nc(C(=O)Nc3ccc(Br)cc3C(=O)O)co2)O1 (stereo not shown)
16 (≈ 25.9 µM) | O=C(Nc1ccc(Br)cc1C(=O)O)c1csc(S(=O)(=O)N2CCN(c3cccc(C(F)(F)F)c3)CC2)c1
4 (≈ 9.97 µM) | CCCn1c(C(=O)Nc2ccc(Br)cc2C(=O)O)cc2ccccc21
8 (≈ 23.2 µM) | N#Cc1ccc(NC(=O)c2cc(CCC(O)CO)on2)c(C(=O)O)c1 (stereo not shown)
0.25 (≈ 0.534 µM) | COc1ccc(CC(=O)Nc2cccc3cc(C(=O)Nc4ccc(C#N)cc4C(=O)O)[nH]c23)cc1
0.125 (≈ 0.326 µM) | N#Cc1ccc(NC(=O)c2noc3cc(-c4ccccc4)ccc23)c(C(=O)O)c1
> 128 | COCC(OC)C(Cc1cnc(C(=O)Nc2ccc(Br)cc2C(=O)O)cn1)OC (stereo not shown)
4 (≈ 12.6 µM) | CC1=C(C(=O)Nc2ccc(C#N)cc2C(=O)O)Cc2ccccc21
0.25 (≈ 0.568 µM) | NS(=O)(=O)c1ccc2onc(C(=O)Nc3ccc(Br)cc3C(=O)O)c2c1

MIC [µg/mL] | SMILES
> 128 | O=C(O)c1cc(Br)ccc1NC(=O)c1cc(Cl)cc[n+]1[O-]
16 (≈ 38.1 µM) | Cc1sc(C(=O)Nc2ccc(C#N)cc2C(=O)O)cc1S(=O)(=O)N1CCCC1
2 (≈ 4.78 µM) | N#Cc1ccc(NC(=O)c2cc3cccc(NC(=O)C4CCOC4)c3[nH]2)c(C(=O)O)c1 (stereo not shown)
8 (≈ 22.2 µM) | O=C(Nc1ccc(Br)cc1C(=O)O)c1cc2ccccc2o1
0.125 (≈ 0.325 µM) | CCCCCCSc1cnc(C(=O)Nc2ccc(C#N)cc2C(=O)O)cn1
1 (≈ 2.47 µM) | CCC(C)C(=O)Nc1cccc2cc(C(=O)Nc3ccc(C#N)cc3C(=O)O)[nH]c12 (stereo not shown)
1 (≈ 2.47 µM) | CCCC(=O)Nc1ccc2cc(C(=O)Nc3ccc(C#N)cc3C(=O)O)n(C)c2c1
4 (≈ 10.1 µM) | COCC(=O)Nc1ccc2onc(C(=O)Nc3ccc(C#N)cc3C(=O)O)c2c1
2 (≈ 5.38 µM) | N#Cc1ccc(NC(=O)c2ccc(SCCCCO)nc2)c(C(=O)O)c1
0.5 (≈ 1.55 µM) | N#Cc1ccc(NC(=O)c2noc3cc(N)ccc23)c(C(=O)O)c1
0.5 (≈ 1.21 µM) | CCCCCCCCSc1cnc(C(=O)Nc2ccc(C#N)cc2C(=O)O)cn1
0.5 (≈ 1.17 µM) | CCS(=O)(=O)Nc1cccc2cc(C(=O)Nc3ccc(C#N)cc3C(=O)O)n(C)c12
1 (≈ 2.85 µM) | N#Cc1ccc(NC(=O)c2ncc(-c3ccc(F)cc3)o2)c(C(=O)O)c1
4 (≈ 9.7 µM) | Cn1c(C(=O)Nc2ccc(C#N)cc2C(=O)O)cc2ccc(NS(C)(=O)=O)cc21
128 (≈ 246 µM) | COC(Cc1cnc(C(=O)Nc2ccc(Br)cc2C(=O)O)cn1)[C@H]1COC2(CCCCC2)O1 (stereo partly shown)
128 (≈ 232 µM) | N#Cc1ccc(NC(=O)COc2ccccc2-c2cc(C(=O)Nc3ccc(C#N)cc3C(=O)O)no2)c(C(=O)O)c1
32 (≈ 104 µM) | N#Cc1ccc(NC(=O)c2cc3cccn3cn2)c(C(=O)O)c1
64 (≈ 151 µM) | O=C(O)c1cc(Br)ccc1NC(=O)c1ncc(C(F)(F)F)cc1Cl
> 128 | N#Cc1ccc(NC(=O)c2cc3cccc(NC(=O)C4CCCN4)c3[nH]2)c(C(=O)O)c1 (stereo not shown)
16 (≈ 35.6 µM) | Cc1sc(C(=O)Nc2ccc(C#N)cc2C(=O)O)cc1S(=O)(=O)N1CCC(O)CC1
16 (≈ 38.8 µM) | N#Cc1ccc(NC(=O)c2ccc(-c3ccccc3C(F)(F)F)nn2)c(C(=O)O)c1
1 (≈ 2.18 µM) | CC(Oc1ccccc1-c1cc(C(=O)Nc2ccc(C#N)cc2C(=O)O)no1)C1CCCCC1 (stereo not shown)
64 (≈ 111 µM) | O=C(Nc1ccc(Br)cc1C(=O)O)c1csc(S(=O)(=O)NC2CCN(Cc3ccccc3)CC2)c1

MIC [µg/mL] | SMILES
> 128 | Cc1c(S(=O)(=O)NCCCn2ccnc2)csc1C(=O)Nc1ccc(Br)cc1C(=O)O
0.125 (≈ 0.27 µM) | Cn1c(C(=O)Nc2ccc(C#N)cc2C(=O)O)cc2ccc(-c3ccccc3C(F)(F)F)cc21
0.03 (≈ 0.078 µM) | CCCCCCSc1ccc(C(=O)Nc2ccc(C#N)cc2C(=O)O)nn1
0.5 (≈ 0.946 µM) | N#Cc1ccc(NC(=O)c2cc3cccc(NC(=O)c4ccccc4CCc4ccccc4)c3[nH]2)c(C(=O)O)c1
> 128 | Cc1ccsc1C(=O)Nc1ccc(Br)cc1C(=O)O
0.125 (≈ 0.281 µM) | O=C(Nc1ccc(Br)cc1C(=O)O)c1cnc(SCc2ccccc2)cn1
0.03 (≈ 0.0531 µM) | CC(=O)Nc1ccc(-c2cc3onc(C(=O)Nc4ccc(C#N)cc4C(=O)O)c3cc2NC(C)=O)c(C(F)(F)F)c1
0.5 (≈ 1.34 µM) | N#Cc1ccc(NC(=O)c2cc(OCc3ccccc3)ccn2)c(C(=O)O)c1
8 (≈ 15.1 µM) | CN(c1ccc(Cl)cc1)S(=O)(=O)c1csc(C(=O)Nc2ccc(Br)cc2C(=O)O)c1
8 (≈ 14.5 µM) | Cc1sc(C(=O)Nc2ccc(Br)cc2C(=O)O)cc1S(=O)(=O)Nc1ccc2c(c1)OCCO2
2 (≈ 3.94 µM) | O=C(Nc1ccc(Br)cc1C(=O)O)c1csc(S(=O)(=O)N2CCc3ccccc32)c1
1 | Cl.Cn1c(C(=O)Nc2ccc(C#N)cc2C(=O)O)cc2cccc(OCC(O)CNCC(O)c3ccccc3)c21 (stereo not shown)
> 128 | O=C(Nc1ccc(Br)cc1C(=O)O)c1c[nH]c(SCc2ccccc2)n1
8 (≈ 18.5 µM) | Cc1oc(C(=O)Nc2ccc(C#N)cc2C(=O)O)cc1S(=O)(=O)N1CCCC1CO (stereo not shown)
32 (≈ 77.6 µM) | N#Cc1ccc(NC(=O)c2cnc(-c3ccccc3C(F)(F)F)cn2)c(C(=O)O)c1
2 (≈ 5.31 µM) | CCC(=O)Nc1cccc2cc(C(=O)Nc3ccc(C#N)cc3C(=O)O)[nH]c12
64 (≈ 110 µM) | Cc1c(S(=O)(=O)Nc2ccc(N3CCOCC3)cc2)csc1C(=O)Nc1ccc(Br)cc1C(=O)O
16 (≈ 35.2 µM) | O=C(Nc1ccc(Br)cc1C(=O)O)c1ccc(-c2cccc(C(F)(F)F)c2)o1
0.125 (≈ 0.31 µM) | O=C(Nc1ccc(O)cc1C(=O)O)c1cc(-c2ccccc2Br)on1
0.25 (≈ 0.701 µM) | CCC(C)Sc1cnc(C(=O)Nc2ccc(C#N)cc2C(=O)O)cn1 (stereo not shown)
16 (≈ 40.7 µM) | N#Cc1ccc(NC(=O)c2cc(-c3ccccc3)nc3ccccc23)c(C(=O)O)c1

Same assay, conditions: read-out: SAUR 9218 MIC

SMILES | MIC [µg/mL]
Cn1c(C(=O)Nc2ccc(C#N)cc2C(=O)O)cc2cccc(NC(=O)CF)c21 | 1 (≈ 2.54 µM)

— patent publication US20040110802A1, “Antibacterial benzoic acid derivatives” (priority 2002, published 2004)
